Patent US10167262B2, “Herbicidal substituted 3-arylpyrazoles” (FMC CORPORATION, priority 2014, dated 2019)

Legend:
Type in all cases: in vivo
[1] = tested on: blackgrass (Alopecurus myosuroides); experiment: Test C pre-/postemergence greenhouse test, plant response rating 0-100; conditions: Postemergence; for Plant response rating, Blackgrass: 250 g ai/ha, scale 0 to 100
How it was run: (§1)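 Visual rating vs controls after 13–15 d greenhouse; 0 = no effect, 100 = complete control. Pre: seeds in loam/sand, treated at planting. Post: seedlings 2–18 cm (1–4 leaf) in peat-based mix. Compounds in surfactant-containing non-phytotoxic solvent.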

[2] = tested on: corn (Zea mays); experiment: as above; conditions: Postemergence; for Plant response rating, Corn: 250 g ai/ha, scale 0 to 100
How it was run: as §1

[3] = tested on: giant foxtail (Setaria faberii); experiment: as above; conditions: Postemergence; for Plant response rating, Foxtail, Giant: 250 g ai/ha, scale 0 to 100
How it was run: as §1

[4] = tested on: johnsongrass (Sorghum halepense); experiment: as above; conditions: Postemergence; for Plant response rating, Johnsongrass: 250 g ai/ha, scale 0 to 100
How it was run: as §1

[5] = tested on: lambsquarters (Chenopodium album); experiment: as above; conditions: Postemergence; for Plant response rating, Lambsquarters: 250 g ai/ha, scale 0 to 100
How it was run: as §1

[6] = tested on: morningglory (Ipomoea coccinea); experiment: as above; conditions: Postemergence; for Plant response rating, Morningglory: 250 g ai/ha, scale 0 to 100
How it was run: as §1

[7] = tested on: pigweed (Amaranthus retroflexus); experiment: as above; conditions: Postemergence; for Plant response rating, Pigweed: 250 g ai/ha, scale 0 to 100
How it was run: as §1

[8] = tested on: soybean (Glycine max); experiment: as above; conditions: Postemergence; for Plant response rating, Soybean: 250 g ai/ha, scale 0 to 100
How it was run: as §1

[9] = tested on: velvetleaf (Abutilon theophrasti); experiment: as above; conditions: Postemergence; for Plant response rating, Velvetleaf: 250 g ai/ha, scale 0 to 100
How it was run: as §1

[10] = tested on: winter wheat (Triticum aestivum); experiment: as above; conditions: Postemergence; for Plant response rating, Wheat: 250 g ai/ha, scale 0 to 100
How it was run: as §1

[11] = tested on: chickweed (common chickweed, Stellaria media); experiment: Test C postemergence greenhouse test, plant response rating 0-100; conditions: for Plant response rating, Chickweed: 250 g ai/ha, scale 0 to 100
How it was run: (§2)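 First, plants were raised in a sphagnum peat, vermiculite and nutrient medium to 1–4 leaves. Next, formulated test compounds were applied over the foliage. Finally, after 13–15 greenhouse days, injury was compared with controls and scored 0–100.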

[12] = tested on: kochia (Kochia scoparia); experiment: as above; conditions: for Plant response rating, Kochia: 250 g ai/ha, scale 0 to 100
How it was run: as §2

[13] = tested on: wild oat (Avena fatua); experiment: as above; conditions: for Plant response rating, Oat, Wild: 250 g ai/ha, scale 0 to 100
How it was run: as §2

For `CC(C)n1cc(C(=O)c2ccccc2)c(-c2cc(Cl)cc(Cl)c2)n1` [Compound 44], the “Plant response rating (0 to 100), Blackgrass” value ([1]; 31 g ai/ha) was 0, the “Plant response rating (0 to 100), Blackgrass” value ([1]; 62 g ai/ha) was 0 and the “Plant response rating (0 to 100), Blackgrass” value ([1]; 125 g ai/ha) was 0. The “Plant response rating, Blackgrass” value [1] was 0, the “Plant response rating (0 to 100), Corn” value ([2]; 31 g ai/ha) was 0 and the “Plant response rating (0 to 100), Corn” value ([2]; 62 g ai/ha) was 5. The “Plant response rating (0 to 100), Corn” value ([2]; 125 g ai/ha) was 5, the “Plant response rating, Corn” value [2] was 10 and the “Plant response rating (0 to 100), Foxtail, Giant” value ([3]; 31 g ai/ha) was 0. The “Plant response rating (0 to 100), Foxtail, Giant” value ([3]; 62 g ai/ha) was 0, the “Plant response rating (0 to 100), Foxtail, Giant” value ([3]; 125 g ai/ha) was 0 and the “Plant response rating, Foxtail, Giant” value [3] was 20. The “Plant response rating (0 to 100), Johnsongrass” value ([4]; 62 g ai/ha) was 0, the “Plant response rating (0 to 100), Johnsongrass” value ([4]; 125 g ai/ha) was 0 and the “Plant response rating, Johnsongrass” value [4] was 0. For the same compound, the “Plant response rating (0 to 100), Lambsquarters” value ([5]; 62 g ai/ha) was 45, the “Plant response rating (0 to 100), Lambsquarters” value ([5]; 125 g ai/ha) was 45 and the “Plant response rating, Lambsquarters” value [5] was 55. For the same compound, the “Plant response rating (0 to 100), Morningglory” value ([6]; 62 g ai/ha) was 0, the “Plant response rating (0 to 100), Morningglory” value ([6]; 125 g ai/ha) was 5 and the “Plant response rating, Morningglory” value [6] was 5. For the same compound, the “Plant response rating (0 to 100), Pigweed” value ([7]; 62 g ai/ha) was 60, the “Plant response rating (0 to 100), Pigweed” value ([7]; 125 g ai/ha) was 60 and the “Plant response rating, Pigweed” value [7] was 100. For the same compound, the “Plant response rating (0 to 100), Soybean” value ([8]; 62 g ai/ha) was 5, the “Plant response rating (0 to 100), Soybean” value ([8]; 125 g ai/ha) was 5 and the “Plant response rating, Soybean” value [8] was 5. For the same compound, the “Plant response rating (0 to 100), Velvetleaf” value ([9]; 62 g ai/ha) was 60, the “Plant response rating (0 to 100), Velvetleaf” value ([9]; 125 g ai/ha) was 75 and the “Plant response rating, Velvetleaf” value [9] was 80. The “Plant response rating (0 to 100), Wheat” value ([10]; 62 g ai/ha) was 0, the “Plant response rating (0 to 100), Wheat” value ([10]; 125 g ai/ha) was 0 and the “Plant response rating, Wheat” value [10] was 0. The “Plant response rating (0 to 100), Chickweed” value ([11]; 31 g ai/ha) was 20, the “Plant response rating (0 to 100), Chickweed” value ([11]; 62 g ai/ha) was 35 and the “Plant response rating, Chickweed” value [11] was 50. The “Plant response rating (0 to 100), Kochia” value ([12]; 62 g ai/ha) was 55, the “Plant response rating (0 to 100), Kochia” value ([12]; 125 g ai/ha) was 65 and the “Plant response rating, Kochia” value [12] was 65. The “Plant response rating (0 to 100), Oat, Wild” value ([13]; 62 g ai/ha) was 0, the “Plant response rating (0 to 100), Oat, Wild” value ([13]; 125 g ai/ha) was 0 and the “Plant response rating, Oat, Wild” value [13] was 0.

For `ON=C(c1ccccc1)c1c[nH]nc1-c1cc(Cl)cc(Cl)c1` [Compound 50], the “Plant response rating (0 to 100), Blackgrass” value ([1]; 31 g ai/ha) was 0, the “Plant response rating (0 to 100), Blackgrass” value ([1]; 62 g ai/ha) was 0 and the “Plant response rating (0 to 100), Blackgrass” value ([1]; 125 g ai/ha) was 0. The “Plant response rating, Blackgrass” value [1] was 0, the “Plant response rating (0 to 100), Corn” value ([2]; 31 g ai/ha) was 0 and the “Plant response rating (0 to 100), Corn” value ([2]; 62 g ai/ha) was 0. The “Plant response rating (0 to 100), Corn” value ([2]; 125 g ai/ha) was 0, the “Plant response rating, Corn” value [2] was 0 and the “Plant response rating (0 to 100), Foxtail, Giant” value ([3]; 31 g ai/ha) was 0. The “Plant response rating (0 to 100), Foxtail, Giant” value ([3]; 62 g ai/ha) was 0, the “Plant response rating (0 to 100), Foxtail, Giant” value ([3]; 125 g ai/ha) was 0 and the “Plant response rating, Foxtail, Giant” value [3] was 0. The “Plant response rating (0 to 100), Johnsongrass” value ([4]; 62 g ai/ha) was 0, the “Plant response rating (0 to 100), Johnsongrass” value ([4]; 125 g ai/ha) was 0 and the “Plant response rating, Johnsongrass” value [4] was 0. The “Plant response rating (0 to 100), Lambsquarters” value ([5]; 62 g ai/ha) was 80, the “Plant response rating (0 to 100), Lambsquarters” value ([5]; 125 g ai/ha) was 100 and the “Plant response rating, Lambsquarters” value [5] was 100. The “Plant response rating (0 to 100), Morningglory” value ([6]; 62 g ai/ha) was 0, the “Plant response rating (0 to 100), Morningglory” value ([6]; 125 g ai/ha) was 0 and the “Plant response rating, Morningglory” value [6] was 0. The “Plant response rating (0 to 100), Pigweed” value ([7]; 62 g ai/ha) was 75, the “Plant response rating (0 to 100), Pigweed” value ([7]; 125 g ai/ha) was 100 and the “Plant response rating, Pigweed” value [7] was 100. For the same compound, the “Plant response rating (0 to 100), Soybean” value ([8]; 62 g ai/ha) was 0, the “Plant response rating (0 to 100), Soybean” value ([8]; 125 g ai/ha) was 0 and the “Plant response rating, Soybean” value [8] was 0. The “Plant response rating (0 to 100), Velvetleaf” value ([9]; 62 g ai/ha) was 75, the “Plant response rating (0 to 100), Velvetleaf” value ([9]; 125 g ai/ha) was 90 and the “Plant response rating, Velvetleaf” value [9] was 95. The “Plant response rating (0 to 100), Wheat” value ([10]; 62 g ai/ha) was 0, the “Plant response rating (0 to 100), Wheat” value ([10]; 125 g ai/ha) was 0 and the “Plant response rating, Wheat” value [10] was 0. For the same compound, the “Plant response rating (0 to 100), Chickweed” value ([11]; 31 g ai/ha) was 95, the “Plant response rating (0 to 100), Chickweed” value ([11]; 62 g ai/ha) was 95 and the “Plant response rating (0 to 100), Chickweed” value ([11]; 125 g ai/ha) was 100. The “Plant response rating, Chickweed” value [11] was 100, the “Plant response rating (0 to 100), Kochia” value ([12]; 62 g ai/ha) was 60 and the “Plant response rating (0 to 100), Kochia” value ([12]; 125 g ai/ha) was 65. The “Plant response rating, Kochia” value [12] was 65, the “Plant response rating (0 to 100), Oat, Wild” value ([13]; 62 g ai/ha) was 0 and the “Plant response rating (0 to 100), Oat, Wild” value ([13]; 125 g ai/ha) was 0. The “Plant response rating, Oat, Wild” value [13] was 0.
